The values that follow come from PubChem BioAssay AID1996.

Molecules are shown by their SMILES. In brackets after ≈: the same amount, converted by molar mass.

The conditions of this data set: buffer; pH 7.4; 200.0 µM.
With `O=S(=O)(Nc1ccc(Br)cn1)c1ccc2ccccc2c1`, the kinetic solubility was found to be 1.3 µg/mL (≈ 3.58 µM).
For `O=C(O)[C@H](Cc1ccccc1)NC(=O)N1CCCCCC1` the value was over 43.6 µg/mL; for `Cc1ccccc1NC(=O)COc1ccccc1C`, 2.1 µg/mL (≈ 8.23 µM).
Take `Cc1cc(NC(=O)C(C)SCC(=O)O)no1` (configuration not stated): the kinetic solubility was over 36.6 µg/mL.
For `O=C1CN(S(=O)(=O)c2ccccc2C(F)(F)F)CCN1` the value was 40.3 µg/mL (≈ 131 µM).
As for `NC(=O)c1ccsc1NC(=O)CSc1ncnc2sccc12`, the figure is 6 µg/mL (≈ 17.1 µM).
As for `COC(=O)c1ccc(COc2cccnc2[N+](=O)[O-])cc1`, the figure is 4.2 µg/mL (≈ 14.6 µM); as for `O=C(CSc1nc2ccc(Cl)cc2[nH]1)NC1CCCC1`, 9.3 µg/mL (≈ 30 µM).
`O=S(=O)(c1ccc(Br)c2ccccc12)N1CCOCC1` showed a solubility (kinetic) of 17.4 µg/mL (≈ 48.8 µM).
For `Cc1ccc(C(=O)OCC(=O)NC(=O)c2ccccc2)o1` the value was 32.9 µg/mL (≈ 115 µM); for `Cc1cc(=O)[nH]c(SCC(=O)N2CCCC(C)C2)n1` (configuration not stated), over 42.2 µg/mL; for `Cc1cccc(NC(=O)N2CCCCCC2)c1`, over 34.8 µg/mL.
The molecule `CCNCCC(CCC(C)C)c1ccc2c(c1)OCO2` (configuration not stated) showed a kinetic solubility of 33.7 µg/mL (≈ 121 µM).
The molecule `O=C(CSC(=S)N1CCOCC1)Nc1nccs1` came in with a solubility (kinetic) of 7.9 µg/mL (≈ 26 µM).
As for `O=C(COc1ccc([N+](=O)[O-])cc1Cl)NCC1CCCO1` (configuration not stated), the figure is over 47.2 µg/mL.
As to `COc1ccc(-c2cc3ccccc3nc2N)cc1OC`, the solubility (kinetic) was found to be 3 µg/mL (≈ 10.7 µM).
As for `Cc1ccccc1NC(=O)c1ccccc1-c1ccccc1`, the figure is 36.5 µg/mL (≈ 127 µM); as for `CN1C2=NCCN2C(=O)c2cc(Cl)ccc21`, 30.9 µg/mL (≈ 131 µM).
As for `O=C1OC(CO)CN1Cc1ccccc1` (configuration not stated), the figure is 30.3 µg/mL (≈ 146 µM); as for `COC(=O)C1C(O)=C(C=Nc2ccccc2)C(=O)CC1(C)C` (configuration not stated), over 45.2 µg/mL.
For the molecule `COc1cc2c(cc1OC)CN(C(=O)c1oc3ccccc3c1C)CC2`, the kinetic solubility worked out at 27.2 µg/mL (≈ 77.4 µM).
`CC(=O)COc1nc2c(c(-c3ccco3)c1C#N)CCc1ccccc1-2` came in with a kinetic solubility of 1.7 µg/mL (≈ 4.94 µM).
Molecule `COc1ccccc1NC(=O)c1ccc(NC(=O)COC(=O)c2cccnc2Cl)cc1` displayed a solubility (kinetic) of 7.4 µg/mL (≈ 16.8 µM).
With `COc1ccc(CNC(=O)COC(=O)Cc2ccc(Br)cc2)cc1`, the solubility (kinetic) stood at 5.8 µg/mL (≈ 14.8 µM).
For `COc1cccc(OC)c1C(=O)NC(=O)Oc1c(F)cccc1F` the value was 43.8 µg/mL (≈ 130 µM); for `CCN(CC)S(=O)(=O)c1cccc(NC(=O)CC2CCCC2)c1`, 33 µg/mL (≈ 97.5 µM).
The molecule `O=C(CN1C(=O)NC2(CCCC2)C1=O)NC(c1ccccc1)c1ccccc1` had a kinetic solubility of 14.5 µg/mL (≈ 38.4 µM).
For `O=C(COc1ccc2ccccc2c1)NCC1CCCO1` (configuration not stated) the value was 36.9 µg/mL (≈ 129 µM).
On to `O=C(CNC(=O)c1cccc(F)c1)N/N=C/c1cccnc1`, for which the solubility (kinetic) is over 45 µg/mL.
In turn, `CCCNC(=O)COC(=O)c1c2c(nc3ccccc13)CCC2` gave a solubility (kinetic) of 45.5 µg/mL (≈ 146 µM).
`COc1ccc(NC(=O)C2C3C=CC(O3)C2C(=O)O)cc1` (configuration not stated) displayed a kinetic solubility of over 43.4 µg/mL.
`Cn1c2c(c(=O)c3ccccc31)CCCC2` had a solubility (kinetic) of over 32 µg/mL.
For the molecule `CCOc1ccc(NC(=O)CNC(=O)c2ccc(OC)cc2)cc1`, the kinetic solubility amounted to 4.1 µg/mL (≈ 12.5 µM).
Regarding `Cc1onc(-c2ccccc2)c1C(=O)OCC(=O)N(C)c1ccccc1`, the solubility (kinetic) stood at 39.2 µg/mL (≈ 112 µM).
As to `COc1ccccc1C(=O)COC(=O)c1ccc(Cl)nc1`, the solubility (kinetic) was 44.6 µg/mL (≈ 146 µM).
Take `COc1cccc(C(=O)Nc2cccc(NC(=O)c3cccs3)c2)c1`: the solubility (kinetic) came out at 13.5 µg/mL (≈ 38.3 µM).
Take `Cn1cccc1C1C(C#N)=C(N)OC2=C1C(=O)CCC2` (configuration not stated): the kinetic solubility was over 40.4 µg/mL.
As for `c1ccc2c(c1)OCCc1c-2[nH]c2ccccc12`, the figure is 3 µg/mL (≈ 12.8 µM); as for `Cc1ccc(CNC(=O)CSc2nc(C)cs2)cc1`, over 43.9 µg/mL; as for `Cn1c(COc2ccc(F)cc2)nc2ccccc21`, 36.3 µg/mL (≈ 142 µM).
`O=C(CNS(=O)(=O)c1ccc(Cl)c(C(F)(F)F)c1)NC1CCCCC1` came in with a solubility (kinetic) of 12.6 µg/mL (≈ 31.6 µM).
As for `CC(=O)NC(c1cccc([N+](=O)[O-])c1)c1ccc2cccnc2c1O` (configuration not stated), the figure is 3.5 µg/mL (≈ 10.4 µM).

One may read the kinetic solubility as the concentration staying in solution when a stock, usually in DMSO, is diluted into the medium.
